Results on 26 compounds are retold here after patent publication US20240383882A1 (Ecstasy LLC, priority 2020, published 2024).

Structures are written as SMILES. Where a name gives a salt, the structure may show the parent alone.

One test deals with male C57BL/6 mice. The test can be described thus: 55° C. warm-water tail-flick test (antinociception). The test is classed as in vivo. The note with it: Mus musculus, sc, 0.5 h, compounds of Table I; s.c.; 30 min; 55° C. water; configuration tested as in Table II; read-out: ED50 (mg/kg) at 30 min on C57BL/6 mice in Warm-water Tail-flick Test. A digest of the protocol: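 Mice with baseline tail-flick latency within 2 s at 55° C received compound s.c. and were retested at 30, 60, 90 and 120 min. % antinociception = 100×(test−control latency)/(20−control latency); ED50 in mg/kg.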
For `CCOCC1(Cn2cnc3cnccc32)CCN(C(C)(C)c2ccc(C)nc2)C1` (single isomer, unassigned) [Compound 85, (R or S)-1-((3-(ethoxymethyl)-1-(2-(6-methylpyridin-3-yl)propan-2-yl)pyrrolidin-3-yl)methyl)-1H-imidazo[4,5-c]pyridine citrate], the ED50 is not above 30 mg/kg.
As for `CC(C)(c1ccccn1)N1CC[C@](CCc2ccc(C#N)cc2)([C@@H]2CCCO2)C1` [Compound 41, 4-(2-((S)-1-(2-(pyridin-2-yl)propan-2-yl)-3-((S)-tetrahydrofuran-2-yl)pyrrolidin-3-yl)ethyl) benzonitrile], the ED50 is not above 30 mg/kg.
On the same count and under the same terms, the same measure for `Cc1ccc(C(C)(C)N2CCC(CCc3ccc(F)s3)(C3OCCc4ccccc43)C2)cn1` (single isomer, unassigned) [Compound 94, 5-(2-((R or S)-3-(2-(5-fluorothiophen-2-yl)ethyl)-3-((R or S)-isochroman-1-yl)pyrrolidin-1-yl)propan-2-yl)-2-methylpyridine citrate]: not above 30 mg/kg.
Same read-out and setting: in the case of `Cc1ccc(C(C)(C)N2CCC(CCc3ccc(F)s3)(c3nccn3C)C2)cn1` (single isomer, unassigned) [Compound 114] it was not above 30 mg/kg.

The same test, now with this note: Mus musculus; half maximal effective dose in mice; using one of: warm water tail-flick test, spared nerve injury, chronic constriction injury, or Complete Freund's adjuvant induced inflammatory pain (not stated which per compound); read-out: Biological Activity (ED50).
Regarding `CC(C)(c1ccc(C(F)(F)F)nc1)N1CC[C@@](CCc2ccc(C#N)cc2)(C(C)(C)O)C1` [Compound 140, (R)-4-(2-(3-(2-hydroxypropan-2-yl)-1-(2-(6-(trifluoromethyl)pyridin-3-yl)propan-2-yl)pyrrolidin-3-yl)ethyl) benzonitrile], the ED50 is more than 50 mg/kg.
Still for that read-out and setting: in the case of `CC(O)[C@]1(CCc2ccc(F)cc2)CCN(C(C)(C)c2ccccn2)C1` (single isomer, unassigned) [Compound 216, (R or S)-1-((R)-3-(4-fluorophenethyl)-1-(2-(pyridin-2-yl)propan-2-yl)pyrrolidin-3-yl)ethan-1-ol] it was more than 50 mg/kg.
Still for that read-out and setting: the same measure for `CC(C)(c1ccccn1)N1CC[C@](CCc2ccc(C#N)cc2)([C@@H]2CCCO2)C1` [Compound 41, 4-(2-((S)-1-(2-(pyridin-2-yl)propan-2-yl)-3-((S)-tetrahydrofuran-2-yl)pyrrolidin-3-yl)ethyl) benzonitrile]: more than 50 mg/kg; for `CC(C)(c1ccccn1)N1CC[C@@](CCc2ccc3ccoc3c2)(c2nn[nH]n2)C1` [Compound 183, (R)-2-(2-(3-(2-(benzofuran-6-yl)ethyl)-3-(2H-tetrazol-5-yl)pyrrolidin-1-yl)propan-2-yl)pyridine]: more than 50 mg/kg.
Same read-out and setting: in the case of `CC(O)[C@]1(CCc2ccc(C#N)cc2)CCN(C(C)(C)c2ccc(C(F)(F)F)nc2)C1` (single isomer, unassigned) [Compound 214, 4-(2-((R)-3-((R or S)-1-hydroxyethyl)-1-(2-(6-(trifluoromethyl)pyridin-3-yl)propan-2-yl)pyrrolidin-3-yl)ethyl) benzonitrile] it was not above 30 mg/kg; in that of `CC(C)(c1ccccn1)N1CC[C@@](CCc2ccc(C#N)c(F)c2)(C(O)C(F)(F)F)C1` (single isomer, unassigned) [Compound 103, 2-fluoro-4-(2-((R)-1-(2-(pyridin-2-yl)propan-2-yl)-3-((R or S)-2,2,2-trifluoro-1-hydroxyethyl)pyrrolidin-3-yl)ethyl) benzonitrile], more than 50 mg/kg.
In the case of `COc1ccc(CN2CC[C@@](CCc3ccc(C#N)cc3)(C(O)C(F)(F)F)C2)cn1` (single isomer, unassigned) [Compound 70], the ED50 was more than 50 mg/kg.
Still for that read-out and setting: the same measure for `CCOC(C(F)(F)F)(C(F)(F)F)[C@]1(CCc2ccc(C#N)cc2)CCN(C(C)(C)c2ccc(C)nc2)C1` [Compound 6, (R)-4-(2-(3-(2-ethoxy-1,1,1,3,3,3-hexafluoropropan-2-yl)-1-(2-(6-methylpyridin-3-yl)propan-2-yl)pyrrolidin-3-yl)ethyl) benzonitrile]: not above 30 mg/kg.
On the same count and under the same terms, the same measure for `CC(C)(c1ccccn1)N1CC[C@@](CCc2ccc(C#N)cn2)(COCc2ccccc2)C1` [Compound 113, (R)-6-(2-(3-((benzyloxy)methyl)-1-(2-(pyridin-2-yl)propan-2-yl)pyrrolidin-3-yl)ethyl) nicotinonitrile]: more than 50 mg/kg; for `CC(C)(c1ccccn1)N1CC[C@@](CCc2ccc(C#N)cc2)(C(C)(C)O)C1` [(R)-4-(2-(3-(2-hydroxypropan-2-yl)-1-(2-(pyridin-2-yl)propan-2-yl)pyrrolidin-3-yl)ethyl) benzonitrile]: more than 50 mg/kg.
On the same count and under the same terms, the same measure for `Cc1ccc(C(C)(C)N2CC[C@](CO)(CCc3ccc(F)cc3)C2)cn1` [Compound 15, (R)-(3-(4-fluorophenethyl)-1-(2-(6-methylpyridin-3-yl)propan-2-yl)pyrrolidin-3-yl)methanol]: not above 30 mg/kg.
As for `CCOC[C@]1(CCc2ccc(F)cc2)CCN(Cc2ccc(OC)nc2)C1` [Compound 1, (R)-5-((3-(ethoxymethyl)-3-(4-fluorophenethyl)pyrrolidin-1-yl)methyl)-2-methoxypyridine], the ED50 is more than 50 mg/kg.
Regarding `CC(C)(c1ccccc1)N1CC[C@](CCc2ccc(S(C)(=O)=O)cc2)(C(O)C(F)(F)F)C1` (single isomer, unassigned) [Compound 213, (R or S)-2,2,2-trifluoro-1-((S)-3-(4-(methylsulfonyl)phenethyl)-1-(2-phenylpropan-2-yl)pyrrolidin-3-yl)ethan-1-ol], the ED50 was not above 30 mg/kg.
On to `CC(C)(c1ccccn1)N1CC[C@@](CCc2ccccc2C#N)(C(O)C(F)(F)F)C1` (single isomer, unassigned) [Compound 135, 2-(2-((R)-1-(2-(pyridin-2-yl)propan-2-yl)-3-((R or S)-2,2,2-trifluoro-1-hydroxyethyl)pyrrolidin-3-yl)ethyl) benzonitrile], for which the ED50 was more than 50 mg/kg.
In the case of `N#Cc1ccc(CC[C@@]2(C3OCC3(F)F)CCN(Cc3ccc(Cl)cc3)C2)cc1` (single isomer, unassigned) [Compound 199, 4-(2-((R)-1-(4-chlorobenzyl)-3-((R or S)-3,3-difluorooxetan-2-yl)pyrrolidin-3-yl)ethyl) benzonitrile], the ED50 is not above 30 mg/kg.
For `CC(C)(c1ccccn1)N1CC[C@](CO)(CCc2ccc(F)c(F)c2)C1` [Compound 146, (R)-(3-(3,4-difluorophenethyl)-1-(2-(pyridin-2-yl)propan-2-yl)pyrrolidin-3-yl)methanol], the ED50 is more than 50 mg/kg.
Still for that read-out and setting: the same measure for `CC(C)(c1ccccn1)N1CC[C@@](CCc2ccc(C#N)cc2F)(C(O)C(F)(F)F)C1` (single isomer, unassigned) [Compound 116, 3-fluoro-4-(2-((R)-1-(2-(pyridin-2-yl)propan-2-yl)-3-((R or S)-2,2,2-trifluoro-1-hydroxyethyl)pyrrolidin-3-yl)ethyl) benzonitrile]: more than 50 mg/kg; for `CC(C)(c1ccccn1)N1CC[C@@](CCc2ccc(C#N)cc2)(C(=O)NC2(C#N)COC2)C1` [Compound 208, (R)-N-(3-cyanooxetan-3-yl)-3-(4-cyanophenethyl)-1-(2-(pyridin-2-yl)propan-2-yl)pyrrolidine-3-carboxamide]: not above 30 mg/kg.
On the same count and under the same terms, in the case of `CC(C)(O)[C@@]1(CCc2ccc(C#N)cc2)CCN(C(c2ccc(F)cc2)c2cccnc2)C1` (single isomer, unassigned) [Compound 71] it was more than 50 mg/kg.
With `CC(C)(c1ccccn1)N1CC[C@](CO)(CCc2ccc(C(F)(F)F)o2)C1` [Compound 189, (R)-(1-(2-(pyridin-2-yl)propan-2-yl)-3-(2-(5-(trifluoromethyl)furan-2-yl)ethyl)pyrrolidin-3-yl)methano], the ED50 was more than 50 mg/kg.
Same read-out and setting: in the case of `CC(C)(c1ccccn1)N1CC[C@@](CCc2ccc3ccoc3c2)(COCc2ccccc2)C1` [Compound 164, (R)-2-(2-(3-(2-(benzofuran-6-yl)ethyl)-3-((benzyloxy)methyl)pyrrolidin-1-yl)propan-2-yl)pyridine] it was more than 50 mg/kg.
As to `CC(C)(c1ccc(F)cn1)N1CC[C@@](CO)(CCc2ccc(C#N)cc2)C1` [Compound 226, (S)-4-(2-(1-(2-(5-fluoropyridin-2-yl)propan-2-yl)-3-(hydroxymethyl)pyrrolidin-3-yl)ethyl) benzonitrile], the ED50 is more than 50 mg/kg.
On to `CC(C)(c1ccc(Cl)cc1)N1CC[C@@](CO)(CCc2ccc(S(C)(=O)=O)cc2)C1` [Compound 44], for which the ED50 was more than 50 mg/kg.
